Consider one compound from patent US11925632B2, “Isoquinoline derivatives for use in treating GLUT1 deficiency syndrome” (GLIAPHARM SA, priority 2019, dated 2024).

“Also recorded” adds a separate entry of the source.

For experiment [1], the system named is astrocytes transfected with GLUT1 siRNA. The experiment in a line: 2-deoxyglucose (2DG) uptake, GLUT1 siRNA astrocytes (cellular model of GLUT1-DS). Format: cell-based, mouse. The note with it: 30 min treatment, 1 or 10 μM, vs vehicle. The procedure: Astrocytes grown on 12-well plates and transfected with either scramble siRNA or GLUT1 siRNA were used. 1 day after having replaced transfection medium (DIV13), 2DG uptake was measured after treatment for 30 min with Vehicle (0.1% DMSO) or with the compound of the invention (1) (concentrations of 1 or 10 μM). During treatment, 1 mM 2DG was added to the medium for assessment of 2DG uptake. At the end of the stimulation, medium was removed and replaced with 150 μl NaOH 0.1M, and stored at −20° C. After thawing, cells were collected using cell scraper and heated for 40 min at 85° C. Then, 150 ul HCl 0.1M and TAE buffer 200 mM was added to each condition. 20 μl were added to a transparent 96-well plate and 2DG was quantified by addition of a reaction solution containing 50 mM TAE, 50 mM KCl, 0.02% BSA, 0.1 mM NADP, 0.2 U/ml diaphorase, 2 mM resazurin and 20 U/ml glucose-6-phosphate dehydrogenase. Concentration of 2DG in samples were calculated by comparison with standard curve of deoxy-glucose-6-phosphate ranging from 0 to 1 nmoles.
Scramble and GLUT1 siRNA sequences were as following:
Cells were grown in transfection medium for 3 days at 37° C. in a humidified atmosphere containing 5% CO2/95% air. […]
2DG uptake after treatment with Veh or compound of the invention (1) was measured in astrocytes transfected with scramble siRNA or GLUT1 siRNA (FIG. 4A).

Another experiment has as its system GLUT1-DS mice. In words: Rotarod motor function in GLUT1-DS transgenic mice. Format: in vivo, mouse. The note with it: 10 mg/kg oral daily for 19 days. Here is the method: Transgenic mice on 129/SvJ genetic background in which GLUT1 has been knocked-down (GLUT1-DS mice) were used (Wang et al., […], Human Molecular Genetics, 15(7)). Mating colonies were composed of wild-type female mice and GLUT1-DS male mice, or GLUT1-DS female mice and wild-type male mice. F1 pups were genotyped after ear punching at weaning using PCR to determine genotype. Mice of 2 to 3 months of age were used.
Motor function was measured in wild-type (WT) and GLUT1-DS transgenic mice in the rotarod after 19-day long treatment with Veh. or Compound (1). Mice were administered every day orally vehicle or Compound (1) at a dose of 10 mg/kg. After 14 days of treatment, mice were exposed to rotarod training, which consisted in placing the mouse on an accelerating rotarod (4 to 40 r.p.m.) during 300 seconds. Mice that felt down before training ended, or at the end of training (300 seconds), were removed and put back to their cages. Training took place over 4 consecutive days, and on each training day mice performed 3 consecutive trials with 15 min inter-trial duration. One day after the last training (on the fifth day), mice were tested on the rotarod. Testing consisted in placing mice on the rotarod at a constant speed of 25 r.p.m. Latencies of mice before falling down were recorded.

In another experiment the test system is primary mouse astrocytes. In words: Extracellular lactate quantification (lactate release from primary astrocytes). Format: cell-based. Here is the method: Primary cultures of cerebrocortical astrocytes were obtained from 1 to 2-day-old OF1 mouse pups (Charles River). Briefly, cortices were isolated and minced in small pieces under a dissecting microscope. The cells were incubated for 30 min at 37° C. in a solution containing 20 U/ml papain, 1 mM L-cysteine and 10 kU/ml DNase I. After dissociation, papain activity was stopped by the addition of fetal calf serum (FCS). Single-cell suspension was then obtained by mechanical dissociation, which consisted in cells trituration in a DMEM D7777 medium supplemented with 44 mm NaHCO3, 10 ml/L antibiotic/antimycotic solution and 10% FCS. The cells were seeded at an average density of ˜10′000 cells/cm^2 on poly-D-lysine coated 96- or 12-well culture plates, depending on their use, and grown in DMEM D7777 medium supplemented with 44 mm NaHCO3, 10 ml/L antibiotic/antimycotic solution and 10% FCS at 37° C. in a humidified atmosphere containing 5% CO2/95% air. Culture medium was renewed twice a week. Cells were stimulated and harvested between DIV14 and DIV17, when confluence and cell growth were optimal.
Secretion of L-lactate was measured in the extracellular medium of 96-well plated astrocytes after 90 min stimulation (at 37° C., in 5% CO2/95% air conditions) with Vehicle (DMSO), the compounds of the invention (100 nM to 100 μM) or positive control. […] Stimulation medium was composed of D5030 medium complemented with 5 mM D-glucose and 44 mM sodium bicarbonate, pH 7.2. To quantify lactate concentrations in the extracellular medium, 200 μl of a 0.2M Glycine-semicarbazide buffer (pH 10) containing 3 mM NAD and 14 U/ml LDH was added to each well of a 96-well plate containing 30 μl aliquots of extracellular medium. Samples were incubated at 37° C. for 1 h. Fluorescence intensity (340 nm excitation/450 nm emission), which represents the amount of NADH produced, was measured, and lactate concentration values were determined relative to a standard curve of L-lactate concentrations.
The release of lactate from primary mouse astrocytes treated with compound (1) at 10 μM was quantified by (FIG. 1). Accumulation of lactate in the extracellular medium was measured over a period of 1.5 h. […] Maximal effects of the compounds were 38.6% (1), 38% (2), 31% (4) and 76% (3) when compared to the effect of the positive control (100%) for compounds (1) to (4), respectively.

With `COc1cc2ccnc(Nc3ccc(OC(F)(F)F)cc3)c2cc1OC` [Example 1, 6,7-dimethoxy-N-(4-(trifluoromethoxy)phenyl)isoquinolin-1-amine], the 2DG uptake entry in experiment [1] is given as “restored; also recorded: significantly enhances 2DG uptake”. The “Rotarod performance (latency before falling, 25 r.p.m.)” value in the experiment with GLUT1-DS mice was “increased rotarod performance”. Moreover, the half-maximal effective concentration (EC50) with primary mouse astrocytes (Astrocyte, 1.5 h, primary mouse astrocytes, 90 min stimulation, read-out: EC50 of astrocyte-mediated lactate secretion) was determined as 7.02 µM. In the experiment on primary mouse astrocytes (Mus musculus, Astrocyte, 1.5 h, positive control CCCP 2 μM, 90 min, read-out: Maximal effect on lactate secretion compared to the effect of the positive control (100%)), the Emax turned out to be 38.6%. Further, in the experiment on primary mouse astrocytes (primary mouse astrocytes, 90 min), the “Concentration at which effect on lactate release is already significant” value was “below 1 μM”.
